Our source for the IC50 values is patent publication US10828301B2, “2,4-pyrimidinediamine compounds and their uses” (Rigel Pharmaceuticals, Inc, priority 2002, dated 2020).

Bounds are passed on as bounds.

The test system of assay [1] is cultured human mast cells (CHMC). The experiment in a line: CHMC low cell density IgE activation: tryptase and LTC4 assays. Format: cell-based. The note with it: read-out: CHMC anti-IgE Tryptase. In outline: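 Degranulation measured after 30 min anti-IgE challenge at 37° C of CHMC plated at 1000-1500 cells/well following 1 h preincubation. Readouts: LTC4 by ELISA on donor-specific diluted supernatants, and tryptase activity from a 30 min room-temperature substrate reaction.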

Assay [2] has the same test system. The experiment in a line: CHMC low cell density ionomycin activation: tryptase assay. The class given is cell-based. The settings on record: read-out: CHMC Ionomycin Tryptase.
[3] abbreviates: Homo sapiens, Mast cell, Low Density CHMC, anti-IgE activation, tryptase readout.
Setting [4] is: Homo sapiens, Mast cell, Low Density CHMC, ionomycin activation, tryptase readout.
Setting [5] is: Low Density CHMC, anti-IgE activation, tryptase readout.
The mark [6] stands for this setting: Low Density CHMC, ionomycin activation, tryptase readout.

Consider `Oc1cccc(Nc2ncc(F)c(NCc3cccnc3)n2)c1` [Compound R945147, 5-Fluoro-N2-(3-hydroxyphenyl)-N4-(3-pyridylmethyl)-2,4-pyrimidinediamine], for which the IC50 is 3.55 µM in assay [1] (setting [3]) and more than 10 µM in assay [2] (setting [4]).

As to `Clc1nc(Nc2ccc3c(c2)OCCO3)nc(Nc2ccc3c(c2)OCCO3)c1Cl` [Compound R926467, N2,N4-Bis(3,4-ethylenedioxyphenyl)-5,6-dichloro-2,4-pyrimidinediamine], the values for the IC50 in assay [1] (setting [3]) and in assay [2] (setting [4]) were 1.18 µM and 8.8 µM, respectively.

On to `C=CCNc1ncc(F)c(Nc2ccc3c(c2)OCCO3)n1` [Compound R925823, N2-Allyl-N4-(3,4-ethylenedioxyphenyl)-5-fluoro-2,4-pyrimidinediamine], for which the IC50 in assay [1] (setting [3]) and in assay [2] (setting [4]) was more than 10 µM each time.

For the compound `c1ccc(-c2cc(Nc3ccc4c(c3)OCCO4)nc(Nc3ccc4c(c3)OCCO4)n2)cc1` [Compound R925811, N2,N4-Bis(3,4-ethylenedioxyphenyl)-6-phenyl-2,4-pyrimidinediamine], the IC50 in assay [1] (setting [3]) is 3.3 µM; in assay [2] (setting [4]), more than 10 µM.

Take `Oc1cccc(Nc2ncc(-c3ccccc3)c(Nc3cccc(O)c3)n2)c1` [Compound R925783, N2,N4-Bis(3-hydroxyphenyl)-5-phenyl-2,4-pyrimidinediamine]: the IC50 in assay [1] (setting [3]) is 2.9 µM; in assay [2] (setting [4]), more than 10 µM.

`COC(=O)C1Cc2cc(Nc3ncc(F)c(Nc4ccc(OC(F)(F)F)c(Cl)c4)n3)ccc2O1` (stereo not shown) [Compound R926953, N4-(3-Chloro-4-trifluoromethoxyphenyl)-5-fluoro-N2-[2,3-dihydro-2-(methoxycarbonyl)benzofuran-5-yl]-2,4-pyrimidinediamine]: the results for the IC50 in assay [1] (setting [3]) and in assay [2] (setting [4]) were 0.049 µM and more than 10 µM, respectively.

For the compound `Oc1cccc(Nc2nc(NCc3ccccn3)ncc2F)c1` [Compound R945166, 5-Fluoro-N4-(3-hydroxyphenyl)-N2-(2-pyridylmethyl)-2,4-pyrimidinediamine], the IC50 in assay [1] (setting [3]) and in assay [2] (setting [4]) was more than 10 µM each time.

Regarding `CNC(=O)Cn1ncc2ccc(Nc3nc(Nc4ccc5c(c4)OCCO5)ncc3F)cc21` [Compound R935225, N2-(3,4-Ethylenedioxyphenyl)-5-fluoro-N4-[1-(N-methylaminocarbonyl)methyl-indazoline-6-yl]-2,4-pyrimidinediamine], the IC50 in assay [1] (setting [5]) was 6.5 µM; in assay [2] (setting [6]), more than 10 µM.

`COC(=O)c1cc2cc(Nc3ncc(F)c(Nc4ccc5oc(C(=O)OC)cc5c4)n3)ccc2o1` [Compound R926604, N2,N4-Bis(2-methoxycarbonylbenzofuran-5-yl)-5-fluoro-2,4-pyrimidinediamine]: the IC50 was 2.85 µM in assay [1] (setting [3]) and more than 10 µM in assay [2] (setting [4]).

As for `Cc1cc(Nc2ncc(F)c(Nc3ccc4c(c3)OCCO4)n2)cc(C(F)(F)F)c1` [Compound R926895, N4-(3,4-Ethylenedioxyphenyl)-5-fluoro-N2-(3-methyl-5-trifluoromethylphenyl)-2,4-pyrimidinediamine], the IC50 in assay [1] (setting [3]) is 0.339 µM; in assay [2] (setting [4]) it was more than 10 µM.

With `N#Cc1cnc(Nc2ccc3c(c2)OCCO3)nc1Nc1ccc2c(c1)OCCO2` [Compound R925773, N2,N4-Bis(3,4-ethylenedioxyphenyl)-5-cyano-2,4-pyrimidinediamine], the IC50 was 0.673 µM in assay [1] (setting [3]) and more than 10 µM in assay [2] (setting [4]).

Consider `COC(=O)c1cc(Nc2ncc(F)c(Nc3cccc(O)c3)n2)ccc1OC` [Compound R940301, 5-Fluoro-N4-(3-hydroxyphenyl)-N2-(3-methyloxycarbonyl-4-methoxyphenyl)-2,4-pyrimidinediamine], for which the IC50 is 1.98 µM in assay [1] (setting [3]) and more than 10 µM in assay [2] (setting [4]).

As to `Nc1cc(Nc2ncc(F)c(Nc3ccc([N+](=O)[O-])c(N)c3)n2)ccc1[N+](=O)[O-]` [Compound R950135, N2,N4-Bis(3-amino-4-nitrophenyl)-5-fluoro-2,4-pyrimidinediamine], the IC50 in assay [1] (Homo sapiens, Mast cell) is 0.85 µM; in assay [2] (Homo sapiens, Mast cell), more than 10 µM.

Turning to `COc1cc(Nc2ncc(F)c(Nc3ccc4c(c3)OCCO4)n2)cc(OC)c1OC` [Compound R926762, N4-(3,4-Ethylenedioxyphenyl)-5-fluoro-N2-(3,4,5-trimethoxyphenyl)-2,4-pyrimidinediamine], the IC50 in assay [1] (setting [3]) was 0.386 µM; in assay [2] (setting [4]), more than 10 µM.

Turning to `CCOC(=O)c1cc2cc(Nc3ncc(F)c(Nc4ccc(C(C)(C)C)cc4)n3)ccc2[nH]1` [Compound R926474, N4-(4-tert-Butylphenyl)-N2-(2-ethoxycarbonylindol-5-yl)-5-fluoro-2,4-pyrimidinediamine], the IC50 was 2.5 µM in assay [1] (setting [3]) and more than 10 µM in assay [2] (setting [4]).

Take `Oc1ccc(CCNc2ncc(Br)c(NCCc3ccc(O)cc3)n2)cc1` [Compound R925792, N2,N4-Bis[2-(4-hydroxyphenyl)ethyl]-5-bromo-2,4-pyrimidinediamine]: the IC50 in assay [1] (setting [3]) is 6.25 µM; in assay [2] (setting [4]), more than 10 µM.

On to `Oc1cccc(Nc2nc(Nc3cc(Cl)c(O)c(Cl)c3)ncc2F)c1` [Compound R926890, 5-Fluoro-N2-(3,5-dichloro-4-hydroxyphenyl)-N4-(3-hydroxyphenyl)-2,4-pyrimidinediamine], for which the IC50 is 0.361 µM in assay [1] (setting [3]) and more than 10 µM in assay [2] (setting [4]).

For the compound `CCOC(=O)c1cc2cccc(Nc3cc(Nc4ccc5c(c4)OCCO5)c(F)cn3)c2[nH]1` [Compound R926808, N2-(2-Ethoxycarbonylindol-7-yl)-N4-(3,4-ethylenedioxyphenyl)-5-fluoro-2,4-pyridinediamine], the IC50 was 0.368 µM in assay [1] (setting [3]) and more than 10 µM in assay [2] (setting [4]).

On to `O=C(O)C1CCC(Nc2nc(Nc3ccc4c(c3)OCCO4)ncc2F)CC1` (stereo not shown) [Compound R925795, N4-(4-Carboxycyclohexyl)-N2-(3,4-ethylenedioxyphenyl)-5-fluoro-2,4-pyrimidinediamine], for which the IC50 in assay [1] (setting [3]) and in assay [2] (setting [4]) was more than 10 µM throughout.

`CCOC(=O)Cc1ccc(Nc2ncc(C(F)(F)F)c(Nc3ccc(CC(=O)OCC)cc3)n2)cc1` [Compound R926663, N2,N4-Bis[4-(ethoxycarbonylmethyl)phenyl]-5-trifluoromethyl-2,4-pyrimidinediamine]: the IC50 in assay [1] (setting [3]) and in assay [2] (setting [4]) was more than 10 µM each time.

Consider `CCOC(=O)CNc1nc(NCC(=O)OCC)c([N+](=O)[O-])c(C(=O)OCC)n1` [Compound R925864, N2,N4-Bis(ethoxycarbonylmethyl)-6-ethoxycarbonyl-5-nitro-2,4-pyrimidinediamine], for which the IC50 in assay [1] (setting [3]) and in assay [2] (setting [4]) was more than 10 µM each time.

Turning to `O=[N+]([O-])c1cnc(Nc2ccc3c(c2)OCCO3)nc1Nc1ccc2c(c1)OCCO2` [Compound R940095, N2,N4-Bis-(3,4-ethylenedioxyphenyl)-5-nitro-2,4-pyrimidinediamine], the IC50 in assay [1] (setting [3]) and in assay [2] (setting [4]) was more than 10 µM in each case.

As to `Fc1cc(Nc2ncc(F)c(Nc3ccc4c(c3)OCCO4)n2)cc(C(F)(F)F)c1` [Compound R926894, N4-(3,4-Ethylenedioxyphenyl)-5-fluoro-N2-(3-fluoro-5-trifluoromethylphenyl)-2,4-pyrimidinediamine], the IC50 in assay [1] (setting [3]) and in assay [2] (setting [4]) was more than 10 µM in each case.

On to `CN1C=COc2cc(Nc3nc(Nc4cccc(O)c4)ncc3F)ccc21` [Compound R908707, 5-Fluoro-N2-(3-hydroxyphenyl)-N4-(N-methyl-1,4-benzoxazin-7-yl)-2,4-pyrimidinediamine], for which the IC50 in assay [1] (setting [3]) is 1.83 µM; in assay [2] (setting [4]) it was more than 10 µM.

As to `Fc1cnc(Nc2ccc3c(c2)OCO3)nc1Nc1ccc2c(c1)OCO2` [Compound R925776, N2,N4-Bis(3,4-methylenedioxyphenyl)-5-fluoro-2,4-pyrimidinediamine], the IC50 in assay [1] (setting [3]) was 2.1 µM; in assay [2] (setting [4]), more than 10 µM.

For the compound `COC(=O)c1ccc(CNc2ncc(C#N)c(NCc3ccc(C(=O)OC)cc3)n2)cc1` [Compound R925819, N2,N4-Bis(methoxycarbonylbenzyl)-5-cyano-2,4-pyrimidinediamine], the IC50 in assay [1] (setting [5]) and in assay [2] (setting [6]) was more than 10 µM throughout.

Consider `OCCN(CCO)c1cccc(Nc2ncc(F)c(Nc3ccc4c(c3)OCCO4)n2)c1` [Compound R950209, N2-[3-Bis(hydroxyethyl)aminophenyl]-N4-(3,4-ethylenedioxyphenyl)-5-fluoro-2,4-pyrimidinediamine], for which the IC50 was 0.748 µM in assay [1] (setting [3]) and more than 10 µM in assay [2] (setting [4]).

Turning to `CC(C)Oc1ccc(Nc2nc(Nc3ccc(C(C)(C)CO)cc3)ncc2F)cc1` [Compound R935151, 5-Fluoro-N2-[4-(2-hydroxy-1,1-dimethylethyl)phenyl]-N4-(4-isopropoxyphenyl)-2,4-pyrimidinediamine], the IC50 was 0.479 µM in assay [1] (setting [3]) and more than 10 µM in assay [2] (setting [4]).

For the compound `Fc1cnc(Nc2ccc3c(c2)OCCO3)nc1NC1CCCCC1` [Compound R925794, N4-Cyclohexyl-N2-(3,4-ethylenedioxyphenyl)-5-fluoro-2,4-pyrimidinediamine], the IC50 in assay [1] (setting [3]) and in assay [2] (setting [4]) was more than 10 µM in each case.

Take `Fc1cnc(Nc2ccccc2-c2ccccc2)nc1Nc1ccccc1-c1ccccc1` [Compound R926398, N2,N4-Bis(2-phenylphenyl)-5-fluoro-2,4-pyrimidinediamine]: the IC50 in assay [1] (setting [3]) and in assay [2] (setting [4]) was more than 10 µM throughout.

For the compound `CNC(=O)C=Nc1cccc(Nc2ncc(F)c(Nc3cccc(NCCO)c3)n2)c1` [Compound R950233, 5-Fluoro-N4-[3-(2-hydroxyethylamino)phenyl]-N2-[3-(N-methylamino)carbonylmethyleneaminophenyl]-2,4-pyrimidinediamine], the IC50 in assay [1] (setting [3]) was 0.98 µM; in assay [2] (setting [4]) it was more than 10 µM.

Regarding `CC(C)(C)OC(=O)C=Nc1cccc(Nc2nc(Nc3cccc(N)c3)ncc2F)c1` [Compound R950179, N2-(3-Aminophenyl)-N4-(3-tert-butoxycarbonylmethyleneaminophenyl)-5-fluoro-2,4-pyrimidinediamine], the IC50 was 0.955 µM in assay [1] (setting [3]) and more than 10 µM in assay [2] (setting [4]).
